# Reference: patent US20210163443A1, “Febrifugine Derivatives” (BRISTOL-MYERS SQUIBB COMPANY, priority 2019, published 2021)
# Like-named read-outs stand apart in the source and are kept apart here.
# Assays:
# Rat hepatocytes = assay: GSH trapping assay in rat hepatocytes; assay type: in vitro ADME; settings: 30 μM, 24 hr incubation, LC-MS
# Protocol: Rat hepatocytes were isolated from male Sprague-Dawley rats (Vivo Biotech Ltd, HYD, India), weighing 230 to 280 g by the two step collagenase perfusion method (seglen, 1976; Berry M N and Friend D S.1969). Rat hepatocytes were cultured in Dulbecco's Modified Eagle's Medium (DMEM, Gibco®, USA) supplemented with 10^−6 M dexamethasone (Gibco®), 5% fetal bovine serum (Gibco®) and cocktail-A mix (CM3000, Gibco®) containing HEPES buffer (PH 7.4), GlutaMAX™, human recombinant insulin, penicillin and streptomycin. Initial cell viability assessed by Trypanblue stain 0.4% (Sigma, UK) and viability more than 80% were considered for culturing. Hepatocytes were seeded in 96 well type-I collagen coated plates (Gibco®) at 4×10^4 cells/well in 100 μL of the culture medium and incubated at 37° C. in 5% CO2 and 95% relative humidity (RH) for 4 hr of cell attachment.
# After 4 hr incubation, rat hepatocytes were washed twice with pre-warmed (37° C.) DMEM incubation medium supplemented with 10^−7 M dexamethasone and cell maintenance cocktail-B (CM4000, Gibco®) solution to remove unattached cells. Post washing hepatocytes were treated with test and reference compounds in incubation medium at single concentration (30 μM) in duplicate and incubate further for 24 hr at 37° C. with 5% CO2 and 95% RH. The final concentration of DMSO in medium was 0.5%.
# Post 24 hr incubation, hepatocyte samples were quenched with equal volumes of acetonitrile containing 0.1% formic acid followed by vortex mix, sonicate and centrifuge at 12000 rpm at room temperature for 5 min. Supernatant samples were analyzed for GSH adducts on a C18 reverse-phase column (Xbridge™ Shield, C18, 4.6×150 mm, 3.5 μm) with solvent A (10 mM ammonium formate and 0.1% formic acid/water) and solvent B (0.1% formic acid/acetonitrile).
# The column was eluted with 5% B for 5 min and then with a linear gradient to 20% B over 10 min and it was maintained up to 15 min, then it was increased linearly to 40% B up to 27 min and then increase to 90% B up to 29 min, and then equilibrate back the column to 5% B up to 33 min at a flow rate of 0.6 ml/min. The column effluent was directed into the ESI source of a LTQ Velos Orbitrap mass spectrometer (Thermo Fisher Scientific, San Jose, Calif.). The ESI conditions were as follows: sheath gas flow rate, 40 arbitrary units; auxiliary gas, 30 arbitrary units; spray voltage, 4.5 kV; capillary temperature, 230° C.; capillary voltage, 30 V; and tube lens offset, 25 V. Data were acquired in positive ion mode using Xcalibur software (Thermo Fisher Scientific) with one full scan followed by two data-dependent scans of the most intense and the second most intense ions. During the data interpretation the characteristic fragments of neutral loss of glycine (75.0320 Da), pyroglutamic acid (129.0426 Da) and loss of neutral moiety GSH (307.0838 Da) and/or a specific fragment of (GSH+H)^+ (m/z 308.0911) were monitored. Finally the fragments ions with m/z e.g. 179.0485, 177.0328 and 162.0219 Da, which were derived from the glutathione moiety were used to report GSH positive results.
# [1] = molecular target: T1, human ProRS (prolyl tRNA synthetase moiety of glutamyl prolyl tRNA synthetase, EPRS) (Homo sapiens, UniProt P07814); assay: Assay for inhibitors of prolyl tRNA synthetase activity (ProRS assay, labeled proline incorporation); assay type: biochemical
# T1 construct: The prolyl tRNA synthetase moiety (ProRS) in the cDNA of glutamyl prolyl tRNA synthetase was subcloned; 6xHis (N, cleaved yes); made in house; host or cells: E. coli BL21 (DE3)
# T1 sequence (P07814 1007-1512 limits assumed): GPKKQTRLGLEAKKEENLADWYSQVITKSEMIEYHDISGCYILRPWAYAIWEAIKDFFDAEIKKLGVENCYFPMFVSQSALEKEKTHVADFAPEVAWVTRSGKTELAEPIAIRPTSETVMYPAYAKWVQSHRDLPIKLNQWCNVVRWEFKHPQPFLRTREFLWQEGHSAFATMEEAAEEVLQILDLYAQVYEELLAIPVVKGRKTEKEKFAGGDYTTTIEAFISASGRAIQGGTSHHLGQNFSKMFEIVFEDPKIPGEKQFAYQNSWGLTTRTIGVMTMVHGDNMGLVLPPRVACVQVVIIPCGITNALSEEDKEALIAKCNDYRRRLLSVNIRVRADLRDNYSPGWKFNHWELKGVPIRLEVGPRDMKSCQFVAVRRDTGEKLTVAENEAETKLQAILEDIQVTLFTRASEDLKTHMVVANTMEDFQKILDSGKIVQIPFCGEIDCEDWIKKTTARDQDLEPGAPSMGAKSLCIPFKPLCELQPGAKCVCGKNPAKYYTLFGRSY
# How it was run: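 Biotinylated N-His-tagged human ProRS (20 nM) from E. coli, with Tris-Cl pH 7.5, 2 mM DTT, 5 mM ATP, MgCl2, bovine tRNA; compounds (10 μM to 0.5 nM) preincubated 15 min on ice. Started with proline (3.96 μM unlabeled, 1.04 μM labeled), 10 min at 37 °C, TCA-precipitated and scintillation-counted; IC50 from 4-parameter fit.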
# [2] = in vivo; cited from earlier work
# [3] = cited from earlier work
# [4] = human ProRS 20 nM, 10 min at 37° C., read-out: EPRS IC50
Structure (SMILES),GSH adduct formation (Rat hepatocytes),"IC50 [1, 4] [nM]",IC50 [1] [nM],anti-fibrotic properties [2],toxicity in humans [3]
"COc1cc2ncn(C[C@@H](O)C[C@H]3NCCC[C@@H]3O)c(=O)c2cc1Cl.Cl [Example 33, 6-Chloro-3-{(S)-2-hydroxy-3-[(2R,3S)-3-hydroxypiperidin-2-yl]propyl}-7-methoxyquinazolin-4(3H)-one hydrochloride]",Negative,116,,,
"Cc1cc(Cl)cc2c(=O)n(C[C@@H](O)C[C@H]3NCCC[C@@H]3O)cnc12.Cl [Example 30, 6-Chloro-3-{(S)-2-hydroxy-3-[(2R,3S)-3-hydroxypiperidin-2-yl]propyl}-8-methylquinazolin-4(3H)-one hydrochloride]",Negative,19,,,
"Cc1cc2ncn(C[C@@H](O)C[C@H]3NCCC[C@@H]3O)c(=O)c2cc1Cl.Cl [Example 31, 6-Chloro-3-{(S)-2-hydroxy-3-[(2R,3S)-3-hydroxypiperidin-2-yl]propyl}-7-methylquinazolin-4(3H)-one hydrochloride]",Negative (detected by mass only),,17,,
"O=C(CC1NCCCC1O)Cn1cnc2cc(Br)c(Cl)cc2c1=O (stereo not shown) [Halofuginone, 7-bromo-6-chloro-3-[3-(3-hydroxy-2-piperidinyl)-2-oxopropyl]-4(3H)-quinazolinone]",,,,anti-fibrotic properties in vivo,"nausea, vomiting, and fatigue, and possibly bleeding complications"
"Cc1cc2ncn(C[C@@H](O)C[C@H]3NCCC[C@@H]3O)c(=O)c2cc1F.Cl [Example 32, 6-Fluoro-3-{(S)-2-hydroxy-3-[(2R,3S)-3-hydroxypiperidin-2-yl]propyl}-7-methylquinazolin-4(3H)-one hydrochloride]",Negative,55,,,
